One experiment has as its system rat liver cells. The experiment can be described thus: Protection against CCl4 toxicity on isolated liver cell cultures. The note with it: CCl4 100 mg L^−1; for Concentration of AlaAT in supernatant of liver cells exposed to CCl4 / Concentration of AspAT in supernatant of liver cells exposed to CCl4: I 100 mg L^−1, P 100 mg L^−1, S 50 mg L^−1; for Inhibition of toxic and lipoperoxidative effects caused by CCl4 on liver cell cultures (in words): summary of Tables 1 and 2.

For experiment [1], the system named is galactosamine-induced liver intoxication. Nature of the experiment: Protection against hepatotoxic effects induced by galactosamine in the rat. The format is in vivo. The protocol: In these tests the method adopted was that described by Reuter (Reuter W., Trends in the Therapy of Liver Diseases Proceeding, Ed. A. Bertelli, pp. 121, 1974, Karger Basel 1975).
Rats weighing approximately 250 g received daily oral administrations for two days consecutively of 200 mg/kg of isovaleryl L-carnitine or 200 mg/kg of propionyl L-carnitine or 100 mg/kg of silymarin or a combination of these compounds at the same doses. After 24 hours, the same rats were administered 400 mg/kg i.p. of galactosamine. After a further 24 hours, blood samples taken from the animals were used to determine both glutamic-oxalacetic […] (GOT) and the bilirubin present in plasma, according to the method described by Keppler (Keppler D., Exp. Mol. Pathol, 9, 279, 1968).

[2] abbreviates: rat plasma 24 hours after galactosamine 400 mg/kg i.p., oral pretreatment two days, alkanoyl L-carnitine 200 mg/kg, silymarin 100 mg/kg.

For the molecule `CCC(=O)O[C@H](CC(=O)[O-])C[N+](C)(C)C` [Propionyl L-carnitine, propionyl L-carnitine], the “Concentration of AlaAT in supernatant of liver cells exposed to CCl4” value is 22.3 ± 4.1 nmol/min/L in the experiment on rat liver cells (4 hours), 18.4 ± 2.3 nmol/min/L in the experiment with rat liver cells (8 hours) and 16.6 ± 1.9 nmol/min/L in the experiment on rat liver cells (16 hours). Besides, the “Concentration of AspAT in supernatant of liver cells exposed to CCl4” value with rat liver cells (4 hours) was 7.5 ± 0.9 nmol/min/L; in the experiment with rat liver cells (8 hours) it was 5.5 ± 1.2 nmol/min/L; in the experiment on rat liver cells (16 hours), 5.2 ± 1.4 nmol/min/L. For the same molecule, the “Inhibition of toxic and lipoperoxidative effects caused by CCl4 on liver cell cultures (in words)” value in the experiment on rat liver cells is reported as “partly inhibiting”. Also, the “Enzyme activity (GOT) and bilirubin after galactosamine (in words)” value in experiment [1] (rat, oral pretreatment, galactosamine 400 mg/kg i.p.) is “reduced”.

For `CC(C)CC(=O)O[C@H](CC(=O)[O-])C[N+](C)(C)C` [Isovaleryl L-carnitine, isovaleryl L-carnitine], the results for the “Concentration of AlaAT in supernatant of liver cells exposed to CCl4” value in the experiment on rat liver cells (4 hours), in the experiment on rat liver cells (8 hours) and with rat liver cells (16 hours) were 19.4 ± 2.4 nmol/min/L, 16.7 ± 3.1 nmol/min/L and 15.6 ± 2.7 nmol/min/L, respectively. For the same molecule, the “Concentration of AspAT in supernatant of liver cells exposed to CCl4” value in the experiment on rat liver cells (4 hours) was determined as 6.9 ± 1.1 nmol/min/L; in the experiment on rat liver cells (8 hours), 6.2 ± 0.9 nmol/min/L; in the experiment on rat liver cells (16 hours), 5.5 ± 1.2 nmol/min/L. In addition, in the experiment with rat liver cells, the “Inhibition of toxic and lipoperoxidative effects caused by CCl4 on liver cell cultures (in words)” value is reported as “partly inhibiting”. For the same molecule, in experiment [1] (rat), the “Protective effect against galactosamine-induced liver intoxication (in words)” value is reported as “protective activity”. In experiment [1] (setting [2]), the Bilirubin is reported as 0.15 ± 0.04. Further, the GOT in experiment [1] (setting [2]) is on record as 215 ± 30.5. The GluDH in experiment [1] (rat, 24 hours after galactosamine 400 mg/kg i.p., oral pretreatment two days, alkanoyl L-carnitine 200 mg/kg, silymarin 100 mg/kg) stood at 64 ± 6.8.

The values are drawn from patent US6552070B2, “Health food useful for preventing liver and biliary dysfunctions containing an alkanoyl L-carnitine and Silybum marianum extract” (Sigma-Tau HealthScience S.p.A., priority 2000, dated 2003).
